# Like-named read-outs stand apart in the source and are kept apart here.
# Assays:
# PI3 kinase alpha = PI3 kinase alpha (Homo sapiens, UniProt P42336); assay: PI3K ATP depletion assay (Biological Method 1, Assay 3; KinaseGlo luminescence); type: biochemical; conditions: ATP depletion assay, read-out: PI3 Kinase Alpha, IC50
# How it was run: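 Compound in DMSO was mixed with 10 nM PI3 kinase and 5 μg/mL phosphatidylinositol, and the reaction was started with 2 μM ATP. It ran to about 50% ATP depletion and was stopped with KinaseGlo.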
# [1] = test system: pSer473 Akt in A2780 cells; assay: pSer473 Akt assay to monitor PI3K pathway in A2780 cells (Biological Method 2, MSD); type: cell-based; conditions: Homo sapiens, inhibition of Akt phosphorylation
# Procedure: In this method, an assay for measuring the PI3K-mediated pSer473-Akt status after treatment with representative inhibitor compounds of the invention is described.
# A2780 cells were cultured in DMEM supplemented with 10% FBS. L-glutamine, sodium pyruvate, and antibiotics. Cells were plated in the same medium at a density of 15,000 cells per well into 96 well tissue culture plates, with outside wells vacant, and allowed to adhere overnight.
# Test compounds supplied in DMSO were diluted further into DMSO at 500 times the desired final concentrations before dilution into culture media to 2 times the final concentrations. Equal volumes of 2× compounds were added to the cells in 96 well plates and incubated at 37° C. for one hour. The media and compounds were then removed, the plates chilled and cells lysed in a lysis buffer (150 mM NaCl, 20 mM Tris pH 7.5, 1 mM EDTA, 1 mM EGTA, 1% Triton X-100) supplemented with phosphatase and protease inhibitors. After thorough mixing, lysates were transferred to both pSer473Akt and total Akt assay plates from Meso Scale Discovery (MSD), and incubated overnight with shaking at 4° C.
# The assays were read on a SECTOR Imager 6000 instrument (Meso Scale Discovery). Ratios of the signal from pSer473Akt and total Akt assays were used to correct for any variability and the percent inhibition of pSer473Akt from the total signal seen in cells treated with compound versus DMSO alone was calculated and used to determine EC50 values for each compound.
# [2] = test system: A2780 ovarian cancer cells; assay: Cellular proliferation in A2780 cells, Cell Titer Glo (Biological Method 4); type: cell-based; conditions: Homo sapiens
# How it was run: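 Viability after 72 h compound exposure (37 °C, 5% CO2) was read by Cell Titer Glo and an EC50 derived, each condition in duplicate. A2780 ovarian cells had been plated at 1,000 per well in DMEM/10% FBS at least 2 h beforehand.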
# [3] = ovarian cancer cell line A2780, Biological Method 4
# Chain of PI3 kinase alpha (P42336 whole entry): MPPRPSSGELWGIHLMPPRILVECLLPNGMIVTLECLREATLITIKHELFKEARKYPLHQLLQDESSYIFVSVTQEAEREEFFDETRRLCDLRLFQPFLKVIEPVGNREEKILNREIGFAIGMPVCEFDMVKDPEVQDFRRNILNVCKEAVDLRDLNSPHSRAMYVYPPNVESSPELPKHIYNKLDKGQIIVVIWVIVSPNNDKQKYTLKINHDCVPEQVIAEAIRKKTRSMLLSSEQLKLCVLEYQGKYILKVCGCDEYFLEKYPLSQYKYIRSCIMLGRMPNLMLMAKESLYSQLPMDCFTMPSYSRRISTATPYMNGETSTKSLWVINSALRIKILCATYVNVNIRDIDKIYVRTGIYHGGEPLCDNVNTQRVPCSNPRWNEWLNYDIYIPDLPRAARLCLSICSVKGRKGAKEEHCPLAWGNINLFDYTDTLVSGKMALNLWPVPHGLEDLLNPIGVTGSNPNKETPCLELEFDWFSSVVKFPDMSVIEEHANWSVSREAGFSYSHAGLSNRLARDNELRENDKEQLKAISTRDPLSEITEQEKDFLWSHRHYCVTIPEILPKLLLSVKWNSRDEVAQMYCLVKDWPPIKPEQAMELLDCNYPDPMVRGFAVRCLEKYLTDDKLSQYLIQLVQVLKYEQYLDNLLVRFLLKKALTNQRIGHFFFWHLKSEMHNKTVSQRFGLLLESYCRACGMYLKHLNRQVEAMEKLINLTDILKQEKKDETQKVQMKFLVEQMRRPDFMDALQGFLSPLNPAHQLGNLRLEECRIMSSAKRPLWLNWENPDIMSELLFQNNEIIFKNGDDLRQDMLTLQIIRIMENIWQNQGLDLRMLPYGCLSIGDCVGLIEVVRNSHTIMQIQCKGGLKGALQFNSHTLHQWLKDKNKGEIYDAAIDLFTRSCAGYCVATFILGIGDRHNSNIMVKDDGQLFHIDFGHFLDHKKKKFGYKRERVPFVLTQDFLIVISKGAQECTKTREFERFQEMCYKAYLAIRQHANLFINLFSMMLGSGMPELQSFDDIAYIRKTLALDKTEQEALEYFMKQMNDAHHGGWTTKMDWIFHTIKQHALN
# Chain of PI3 kinase alpha (P27986 whole entry partner): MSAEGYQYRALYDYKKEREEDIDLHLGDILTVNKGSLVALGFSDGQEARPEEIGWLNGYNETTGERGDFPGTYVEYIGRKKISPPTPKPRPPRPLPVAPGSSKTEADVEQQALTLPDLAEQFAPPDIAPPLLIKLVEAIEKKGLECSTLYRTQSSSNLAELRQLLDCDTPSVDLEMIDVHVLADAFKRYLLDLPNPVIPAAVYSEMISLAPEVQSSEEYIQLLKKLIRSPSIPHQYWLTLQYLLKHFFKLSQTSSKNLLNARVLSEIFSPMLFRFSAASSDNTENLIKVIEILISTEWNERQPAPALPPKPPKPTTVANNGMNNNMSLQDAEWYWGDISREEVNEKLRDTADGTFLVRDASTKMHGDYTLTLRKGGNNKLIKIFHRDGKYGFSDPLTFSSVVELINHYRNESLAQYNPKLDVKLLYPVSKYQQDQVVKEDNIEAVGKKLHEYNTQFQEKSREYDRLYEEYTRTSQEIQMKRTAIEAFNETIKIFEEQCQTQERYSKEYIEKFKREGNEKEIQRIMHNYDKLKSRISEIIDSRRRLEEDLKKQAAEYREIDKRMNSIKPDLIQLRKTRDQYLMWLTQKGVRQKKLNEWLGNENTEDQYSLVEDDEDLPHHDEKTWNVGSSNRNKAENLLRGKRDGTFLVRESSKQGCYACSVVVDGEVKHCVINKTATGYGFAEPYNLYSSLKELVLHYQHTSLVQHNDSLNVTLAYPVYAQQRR
IC50 (PI3 kinase alpha),EC50 ([1]; A2780 cells),EC50 ([2]; ovarian cancer cell line A2780),IC50 (PI3 kinase alpha; Biological Method 1),"EC50 ([1]; A2780, Biological Method 2)","EC50 [2, 3]",Compound
< 1000 nM,< 1000 nM,< 1000 nM,–,–,–,COc1cccc2ncc(Nc3cc(-c4cnc(N)nc4)nc(N4CCOCC4)n3)cc12 [Compound 7]
< 1000 nM,< 1000 nM,< 1000 nM,–,–,–,CC(C)C(=O)N1CCC(Oc2cc(-c3cnc(N)nc3C(F)(F)F)nc(N3CCOCC3)n2)CC1 [Compound 106]
< 1000 nM,< 1000 nM,< 1000 nM,–,–,–,Cc1nc(N)ncc1-c1nc(N2CCOCC2)nc(Nc2cnc3ccccc3c2)c1C [Compound 185]
< 1000 nM,< 1000 nM,< 1000 nM,–,–,–,CS(=O)(=O)c1ccc(Nc2cc(-c3cnc(N)nc3C(F)(F)F)nc(N3CCOCC3)n2)cn1 [Compound 78]
< 1000 nM,< 1000 nM,< 1000 nM,–,–,–,COc1ccc2ncc(Nc3nc(N4CCOCC4)nc(-c4cnc(N)nc4)c3C)cc2c1 [Compound 177]
< 1000 nM,< 1000 nM,< 1000 nM,–,–,–,Nc1ncc(-c2cc(Nc3ccncc3)nc(N3CCOCC3)n2)cn1 [Compound 44]
< 1000 nM,< 1000 nM,< 1000 nM,–,–,–,CS(=O)(=O)c1cccc(-c2cc(-c3cnc(N)cc3C(F)(F)F)nc(N3CCOCC3)n2)c1 [Compound 95]
< 1000 nM,< 1000 nM,< 1000 nM,–,–,–,CCOc1cc(Nc2cc(-c3ccc(N)nc3)nc(N3CCOCC3)n2)ccn1 [Compound 102]
< 1000 nM,< 1000 nM,< 10000 nM,–,–,–,COc1cccc2ncc(Nc3cc(-c4cnc(N)cc4C(F)(F)F)nc(N4CCOCC4)n3)cc12 [Compound 140]
< 1000 nM,< 1000 nM,< 1000 nM,–,–,–,Cc1cc(Nc2cc(-c3cnc(N)nc3N)nc(N3CCOCC3)n2)ccn1 [Compound 53]
< 1000 nM,< 1000 nM,< 1000 nM,–,–,–,COc1cncc(-c2cc(-c3cnc(N)nc3)nc(N3CCOCC3)n2)c1 [Compound 57]
–,–,–,< 1000 nM,< 1000 nM,< 1000 nM,Cc1cc(N)ncc1-c1cc(Nc2cnc3ccccc3c2)nc(N2CCOCC2)n1 [Compound 201]
–,–,–,< 1000 nM,< 10000 nM,< 10000 nM,N#Cc1cc(-c2cnc(N)cc2C(F)(F)F)nc(N2CCOCC2)n1 [Compound 209]
< 1000 nM,< 1000 nM,< 1000 nM,–,–,–,Nc1ccc(-c2cc(Nc3cnc4ccccc4c3)nc(N3CCOCC3)n2)c(F)n1 [Compound 169]
< 1000 nM,< 1000 nM,< 1000 nM,–,–,–,COc1nc(N)ncc1-c1cc(Nc2cnc3ccccc3c2)nc(N2CCOCC2)n1 [Compound 161]
< 1000 nM,< 1000 nM,< 1000 nM,–,–,–,Nc1ncc(-c2cc(N3CCOC(c4ccccc4)C3)nc(N3CCOCC3)n2)cn1 (stereo not drawn) [Compound 15]
< 1000 nM,< 1000 nM,< 1000 nM,–,–,–,COc1cccc2ncc(Nc3cc(-c4cnc(N)nc4C(F)(F)F)nc(N4CCOCC4)n3)cc12 [Compound 54]
< 1000 nM,< 1000 nM,< 1000 nM,–,–,–,Nc1ncc(-c2cc(N3CCOc4ccccc43)nc(N3CCOCC3)n2)cn1 [Compound 65]
< 1000 nM,< 1000 nM,< 1000 nM,–,–,–,Cc1cc(Nc2cc(-c3cnc(N)cc3C(F)(F)F)nc(N3CCOCC3)n2)ccn1 [Compound 110]
< 1000 nM,< 1000 nM,< 10000 nM,–,–,–,N#Cc1ccnc(Nc2cc(-c3ccc(N)nc3)nc(N3CCOCC3)n2)c1 [Compound 152]
< 1000 nM,< 1000 nM,< 1000 nM,–,–,–,Nc1ncc(-c2cc(Nc3ccncc3C(F)(F)F)nc(N3CCOCC3)n2)cn1 [Compound 43]
< 1000 nM,< 1000 nM,< 1000 nM,–,–,–,Nc1ccc(-c2cc(Nc3ccc4ncccc4c3)nc(N3CCOCC3)n2)cn1 [Compound 82]
< 1000 nM,< 1000 nM,< 1000 nM,–,–,–,CN(C)CCOc1ccc(Nc2cc(-c3cnc(N)nc3)nc(N3CCOCC3)n2)cn1 [Compound 36]
< 1000 nM,< 1000 nM,< 1000 nM,–,–,–,Nc1ccc(-c2cc(Nc3cnc4ccc(OCCN5CCCC5)cc4c3)nc(N3CCOCC3)n2)cn1 [Compound 181]
< 1000 nM,< 1000 nM,< 1000 nM,–,–,–,CC(C)C(=O)N1CCC(Oc2cc(-c3cnc(N)[nH]c3=O)nc(N3CCOCC3)n2)CC1 [Compound 49]

IC50 (PI3 kinase alpha),EC50 ([1]; A2780 cells),EC50 ([2]; ovarian cancer cell line A2780),IC50 (PI3 kinase alpha; Biological Method 1),"EC50 ([1]; A2780, Biological Method 2)","EC50 [2, 3]",Compound
< 1000 nM,< 1000 nM,< 1000 nM,–,–,–,Nc1ncc(-c2cc(Nc3ccc(Oc4cccnc4)nc3)nc(N3CCOCC3)n2)cn1 [Compound 64]
< 1000 nM,< 1000 nM,< 10000 nM,–,–,–,Nc1ccc(-c2cc(Nc3ccccc3N3CCOCC3)nc(N3CCOCC3)n2)cn1 [Compound 180]
< 1000 nM,< 1000 nM,< 1000 nM,–,–,–,CS(=O)(=O)c1cccc(-c2cc(-c3cnc(N)cc3C#N)nc(N3CCOCC3)n2)c1 [Compound 92]
–,–,–,< 1000 nM,< 1000 nM,< 1000 nM,COc1ccc2ncc(Nc3cc(-c4cnc(N)nc4)nc(N4CCOCC4)n3)cc2c1 [Compound 206]
< 1000 nM,< 1000 nM,< 1000 nM,–,–,–,CS(=O)(=O)Nc1ncccc1-c1cc(-c2cnc(N)cc2C#N)nc(N2CCOCC2)n1 [Compound 136]
< 1000 nM,< 1000 nM,< 10000 nM,–,–,–,CC(C)N1CCC(Oc2cncc(-c3cc(-c4cnc(N)cc4C(F)(F)F)nc(N4CCOCC4)n3)c2)CC1 [Compound 79]
< 1000 nM,< 1000 nM,< 1000 nM,–,–,–,Nc1ncc(-c2cc(Oc3cccnc3)nc(N3CCOCC3)n2)cn1 [Compound 8]
< 1000 nM,< 1000 nM,< 1000 nM,–,–,–,Nc1ccc(-c2cc(Nc3ccncc3C(F)(F)F)nc(N3CCOCC3)n2)cn1 [Compound 142]
–,–,–,< 1000 nM,< 1000 nM,< 1000 nM,Nc1ncc(-c2cc(Nc3cnc4ccccc4c3)nc(N3CCOCC3)n2)cc1F [Compound 202]
< 1000 nM,< 1000 nM,< 10000 nM,–,–,–,CS(=O)(=O)c1ccc2cc(Nc3cc(-c4ccc(N)nc4)nc(N4CCOCC4)n3)cnc2c1 [Compound 149]
< 1000 nM,< 1000 nM,< 1000 nM,–,–,–,Nc1ncc(-c2cc(Nc3ccc4c(c3)OCCO4)nc(N3CCOCC3)n2)cn1 [Compound 67]
< 1000 nM,< 1000 nM,< 1000 nM,–,–,–,CC(C)N1CCC(Oc2ccc(Nc3cc(-c4cnc(N)cc4C(F)(F)F)nc(N4CCOCC4)n3)cn2)CC1 [Compound 11]
< 1000 nM,< 1000 nM,< 1000 nM,–,–,–,CN1CCC(Oc2ccc(Nc3cc(-c4cnc(N)nc4C(F)(F)F)nc(N4CCOCC4)n3)cn2)CC1 [Compound 62]
< 1000 nM,< 1000 nM,< 1000 nM,–,–,–,CC(C)OC(=O)N1CCC(Oc2cc(-c3cnc(N)nc3N)nc(N3CCOCC3)n2)CC1 [Compound 131]
< 1000 nM,< 1000 nM,< 1000 nM,–,–,–,CS(=O)(=O)N1CCC(Oc2cc(-c3cnc(N)nc3C(F)(F)F)nc(N3CCOCC3)n2)CC1 [Compound 74]
< 1000 nM,< 1000 nM,< 1000 nM,–,–,–,Nc1cc(C(F)(F)F)c(-c2cc(Nc3ccc(OC4CCNCC4)nc3)nc(N3CCOCC3)n2)cn1 [Compound 150]
< 1000 nM,< 1000 nM,< 1000 nM,–,–,–,COc1ccc2ncc(Nc3cc(-c4cnc(N)nc4C)nc(N4CCOCC4)n3)cc2c1 [Compound 154]
< 1000 nM,< 1000 nM,< 1000 nM,–,–,–,COc1ccc2cc(Nc3cc(-c4cnc(N)nc4)nc(N4CCOCC4)n3)cnc2c1 [Compound 60]
< 1000 nM,< 1000 nM,< 10000 nM,–,–,–,Nc1cc(C(F)(F)F)c(-c2cc(-c3cncc(OC4CCNCC4)c3)nc(N3CCOCC3)n2)cn1 [Compound 88]
< 1000 nM,< 1000 nM,< 1000 nM,–,–,–,Nc1ncc(-c2cc(OC3CCN(C(=O)OC4CCCC4)CC3)nc(N3CCOCC3)n2)c(=O)[nH]1 [Compound 47]
–,–,–,< 1000 nM,< 10000 nM,< 25000 nM,Cc1c(Nc2ccc(OC(CO)CO)nc2)nc(N2CCOCC2)nc1-c1cnc(N)nc1 [Compound 212]
< 1000 nM,< 1000 nM,< 1000 nM,–,–,–,Nc1ncc(-c2cc(OC3CCN(C(=O)c4ccccc4)CC3)nc(N3CCOCC3)n2)c(=O)[nH]1 [Compound 48]
< 1000 nM,< 1000 nM,< 1000 nM,–,–,–,CS(=O)(=O)c1cccc(-c2cc(-c3cnc(N)[nH]c3=O)nc(N3CCOCC3)n2)c1 [Compound 105]
< 1000 nM,< 1000 nM,< 10000 nM,–,–,–,Nc1ncc(-c2cc(O[C@H]3CCOC3)nc(N3CCOCC3)n2)c(N)n1 [Compound 101]

# — US8217035B2, “Pyrimidine derivatives used as PI-3-kinase inhibitors” (Novartis AG, priority 2006, dated 2012)
